# Patent publication US20250127734A1, “ALZ-801 FOR USE IN TREATING A COVID-19 ASSOCIATED NEUROLOGICAL SYMPTOM” (Alzheon, Inc., priority 2022, published 2025)
# “And” between values parts separate entries of the source, which are not always exact repeats. Equal values may be shown once.
# B1: lecanemab: anti-amyloid antibody (antibody, chains of the INN, looked up, V domains shown)
# VH: EVQLVESGGGLVQPGGSLRLSCSASGFTFSSFGMHWVRQAPGKGLEWVAYISSGSSTIYYGDTVKGRFTISRDNAKNSLFLQMSSLRAEDTAVYYCAREGGYYYGRSYYTMDYWGQGTTVTVSS
# VL: DVVMTQSPLSLPVTPGAPASISCRSSQSIVHSNGNTYLEWYLQKPGQSPKLLIYKVSNRFSGVPDRFSGSGSGTDFTLRISRVEAEDVGIYYCFQGSHVPPTFGPGTKLEIK
# Tests used:
# [1] = Phase 2 trial in early AD APOE4 carriers: brain volumes (hippocampal, ventricular; MRI) vs matched ADNI cohort; format: in vivo, human
# Experimental: (§1) Evaluation of disease modifying effects from phase 2 trial of ALZ-801 (valiltramiprosate) in subjects with early Alzheimer's disease were conducted. The study enrolled 84 patients, with early AD, who carry the APOE4/4 or APOE3/4 genotype and have an MMSE score ranging from 22 to 30 (CDR-G 0.5 or 1). Each patient received 265 mg ALZ-801 twice daily. The average MMSE score of the subjects was 26 (mean age 69 years, 52% female). Subjects were either amyloid PET positive or A+/T+ on CSF assays. CSF criteria were: Ratio of Aβ42/40×10≤0.61, and p-tau181≥61 pg/ml. CSF was evaluated at 52 weeks, and plasma biomarkers at every visit.
# Unlike anti-amyloid antibodies, such as Lecanemab, ALZ-801 treatment over 52 weeks also appeared to show an ˜15% reduction in ventricular volume expansion as measured by MRI (p=0.08).
# [2] = tested on: plasma Abeta40; assay: Phase 2 trial in early AD APOE4 carriers: plasma Abeta40; format: in vivo, human; settings: 52 weeks; 265 mg BID oral; p=0.002
# Experimental: as §1
# (§2) All fluid biomarker analyses were performed at the Neurochemistry Laboratory of Dr. Blennow (Molndal, Sweden), and were blinded to subject's demographics or genotype. CSF biomarker assays were analyzed using Lumipulse (Fujirebio) and plasma assays utilized Simoa assays. Cognitive tests include the Rey Auditory Verbal Learning Test (RAVLT: immediate, delayed and recognition memory) and Digit Symbol Substitution Tests (DSST), and a composite Z-score is calculated (3-item RAVLT+DSST). Change from baseline (CBL) analyses were performed on the mITT population and included all observed data, using paired t-tests and 2-sided p-values. The primary biomarker outcome was p-tau181. […]
# [3] = tested on: plasma Abeta42; assay: Phase 2 trial in early AD APOE4 carriers: plasma Abeta42; format: in vivo, human; settings: 52 weeks; 265 mg BID oral; p=0.005
# Experimental: as §1, §2
# [4] = tested on: plasma p-tau181; assay: Phase 2 trial in early AD APOE4 carriers: plasma p-tau181 (Simoa); format: in vivo, human; settings: 265 mg BID oral, APOE4/4 or APOE3/4, change from baseline
# Experimental: as §1
# (§3) All fluid biomarker analyses were performed at the Neurochemistry Laboratory of Dr. Blennow (Molndal, Sweden), and were blinded to subject's demographics or genotype. CSF biomarker assays were analyzed using Lumipulse (Fujirebio) and plasma assays utilized Simoa assays. Cognitive tests include the Rey Auditory Verbal Learning Test (RAVLT: immediate, delayed and recognition memory) and Digit Symbol Substitution Tests (DSST), and a composite Z-score is calculated (3-item RAVLT+DSST). Change from baseline (CBL) analyses were performed on the mITT population and included all observed data, using paired t-tests and 2-sided p-values. The primary biomarker outcome was p-tau181.
# (§4) Of the 84 APOE4 carrier that were enrolled and received ALZ-801, 80 and 75 subjects completed 26 and 52 weeks respectively. […] This is much greater than the annualized ˜12% reduction in plasma p-tauisi observed in the recent human clinical trials of the anti-amyloid antibody lecanemab (van Dyck, C H et al., N Engl J Med 2023; 388: 9-21, DOI: 10.1056/NEJMoa2212948).
# [5] = tested on: plasma p-tau181/Abeta42 ratio; assay: Phase 2 trial in early AD APOE4 carriers: plasma p-tau181/Abeta42 ratio; format: in vivo, human; settings: 265 mg BID oral
# Experimental: as §1, §3, §4
# [6] = cited from earlier work
Molecule,"annualized reduction in atrophy of hippocampal volume ([1]; compared to a well-matched ADNI cohort, p=0.05) [%]","reduction in ventricular volume expansion ([1]; over 52 weeks, measured by MRI, p=0.08) [%]",reduction in plasma Abeta40 [2] [%],reduction in plasma Abeta42 [3] [%],"reduction in plasma p-tau181 ([4]; 13 weeks, p=0.014) [%]","reduction in plasma p-tau181 ([4]; 26 weeks, p=0.014) [%]","reduction in plasma p-tau181 ([4]; 52 weeks, p=0.016) [%]","reduction in plasma p-tau181/Abeta42 ratio ([5]; 13 weeks, p=0.011) [%]","reduction in plasma p-tau181/Abeta42 ratio ([5]; 26 weeks, p=0.011) [%]","reduction in plasma p-tau181/Abeta42 ratio ([5]; 52 weeks, p=0.032)","annualized reduction in hippocampal volume atrophy, result in words ([6]; Van Dyck, 2022)","annualized reduction in plasma p-tau181 ([6]; recent human clinical trials of lecanemab, van Dyck et al. N Engl J Med 2023) [%]"
"CC(C)[C@H](N)C(=O)NCCCS(=O)(=O)O [ALZ-801, valyl-3-amino-1-propanesulfonic acid]",~20,~15,5,5,18,29,41,21,30,37% and 31%,–,–
B1,–,–,–,–,–,–,–,–,–,–,did not demonstrate any significant annualized reduction,~12
